Key:
[1] = system: TRF2 binding to telomere DNA; test: DNA ChIP assay of TRF2 binding to telomere DNA in LOX cells; assay type: cell-based, human; settings: 2 μM, 2 days
Protocol: The lysates were sonicated, cleared by centrifugation, and supernatants were diluted 10 fold into IP Buffer (0.01% SDS, 1.1% Triton X-100, 1.2mM EDTA, 16.7mM Tris pH 8.1, 167mM NaCl, protease inhibitors cocktail, 50U/ml SUPERase•in) for IP reaction with rabbit IgG (Santa Cruz Biotechnology) or rabbit polyclonal anti-TRF2 (Pocono Rabbit Farm) at 4 ° C overnight. Each immune complex was collected by Dynal A beads (Invitrogen), washed five times (1 ml wash, 10 mins each) in ChIP related wash buffer at 4 ° C, eluted by addition of 200µl Elution buffer (10mM Tris, pH 8.0, 5mM EDTA, 1% SDS, 50U/ml SUPERase.In) at 70 °C for 20 mins, and the elutes were placed at 70 °C for 2 hrs to reverse cross-linking. […]
(§1) DNA ChIP assays was performed as described previously 3 with minor modifications. Briefly, 1 x 10^7 LOX cells treated with indicated chemicals (2 µM) for 48 hrs were subject to ChIP analysis and immunoprecipitated DNA was assayed by DNA dot-blot using 32P-labeled (TTAGGG)4 or Alu probe. […]

[2] = system: TERRA antisense (5'-fluorescein) (RNA, single strand) CCCUAACCCUAACCCUAACCCUAA; test: fluorescence polarization; settings: 150 mM salt (KCl, NaCl or LiCl; which not stated); 20 mM HEPES pH 7.5, room temperature, tRNA competitor; dilutions from 50 μM compound
[3] = system: TeloDNA (5'-fluorescein) (DNA, G4) TTAGGGTTAGGGTTAGGGTTAGGG; test: fluorescence polarization; settings: 150 mM KCl, NaCl or LiCl (salt not specified); 20 mM HEPES; 20 mM HEPES pH 7.5, room temperature, tRNA competitor added, 10 nM probe; apparent
TERRA in U2OS cells = test: TERRA levels by RNA dot blot in U2OS cells; assay type: cell-based; settings: ALT positive U2OS cells, 2 μM, 2 days
Protocol: LOX human melanoma cells[74],[101] were grown in complete RPMI (high glucose RPMI supplemented with 10% heat inactivated FBS, 100 I.U./mL Penicillin, and 100 μg/mL Streptomycin (Corning)). LOX cells inducibly expressing TRF2∆B protein were generated by lentiviral transduction. Cells were infected with lentiviral particles containing pInducer10L and pIND-MYC-TRF2∆B, and single cell clonal colonies were selected in 1 µg/mL puromycin. N-terminally Myc-tagged TRF2∆B protein was expressed in stable lines by induction with 1 µg/ml doxycycline at indicated days. Due to the instability of doxycycline in the culture, the culture medium will be replaced with fresh doxycycline every 2 days. […]
(§2) Homogenous Time Resolved Fluorescence (HTRF) assay
All material including peptide, nucleic acids and compounds were dissolved in buffer containing 20mM HEPES pH7.5 150mM KCl. […] The plate was incubated at room temperature for 30 minutes, following by adding 5µL of streptavidin-Tb-cryptate (Cisbio, PerkinElmer) and the plate was then incubated at room temperature for another 30 minutes before measured by EnVision plate reader (330/520 nm). […] The curves were analyzed using Prism 8.0. […]
(§3) Total RNA was isolated as previously described by using TRIzol reagent (Invitrogen) 1. […] RNA concentration was determined by Nanodrop-2000 (ThermoFisher). […]

[4] = system: TeloDNA (HTRF assay) (DNA, G4) TTAGGGTTAGGGTTAGGGTTAGGG; test: HTRF, disruption of TRF2 peptide complex; settings: TRF2 GAR peptide displaced
TRF2-TERRA = test: HTRF assay, disruption of TERRA and TRF2 peptide interaction; assay type: binding; settings: compared to BRACO-19
Protocol: Mei et al, 2020 TERRA Requires TRF2 GAR Domain
as §2
All material including peptide, nucleic acids and compounds were dissolved in buffer containing 20mM HEPES pH7.5 150mM KCl. To measure the direct interaction between peptide and nucleic acids, 5µL of FITC-labeled TRF2 GAR peptide was added into each 384 well with a sequential of 2-fold dilution starting from 200nM, 5µL of 10nM biotin-labeled nucleic acid was then added into the well and fixed with the peptide, 5µL of buffer was added to make each well contain 15µL solution. The plate was incubated at room temperature for 30 minutes, following by adding 5µL of streptavidin-Tb-cryptate (Cisbio, PerkinElmer) and the plate was then incubated at room temperature for another 30 minutes before measured by EnVision plate reader (330/520 nm). To measure the compound disruption on peptide and nucleic acids, 5µL of small molecule was added into each 384 well first with a sequential of 2-fold dilution starting from 5µM, followed by 5µL of 10nM nucleic acid and 100nM peptide and then the plate was incubated at room temperature for 30 minutes. The rest step was similar to the direct binding measurement assay. The curves were analyzed using Prism 8.0. […]
as §3

G4 telomere DNA = test: ChIP with BG4 antibody for G4 telomere DNA in LOX cells; assay type: cell-based, human; settings: 2 μM, 2 days
Protocol: as §1

[5] = system: TERRA (unlabelled) (RNA, G4) UUAGGGUUAGGGUUAGGGUUAGGG; test: circular dichroism; settings: 150 mM KCl; 20 mM HEPES pH 7.5, 20% PEG8000, 4 °C, 10 μM RNA, mixed 1:1 molar ratio
[6] = system: TERRA (HTRF assay) (RNA, G4) UUAGGGUUAGGGUUAGGGUUAGGG; test: HTRF, disruption of TRF2 peptide complex; settings: TRF2 GAR peptide displaced

Compound	effect on TRF2 binding to telomere DNA [1]	binding [2]	EC50 [3] [µM]	TERRA levels in U2OS cells (TERRA in U2OS cells)	IC50 [4] [µM]	inhibition of TRF2-TERRA by HTRF (TRF2-TERRA)	G4 telomere DNA (BG4 ChIP) relative to PP or PDS treated cells (G4 telomere DNA)	binding [5]	IC50 [6] [µM]
CN(C)c1ccc(Nc2c3ccc(NC(=O)CCN4CCCC4)cc3nc3cc(NC(=O)CCN4CCCC4)ccc23)cc1 [BRACO-19]	Neither NMM, PP, nor BRACO-19 had any significant effect	no	3.9	reduced TERRA levels	0.007 ± 0.00016				
CCc1c(C)c2cc3nc(cc4nc(cc5c(CC)c(C)c(cc1[nH]2)n5C)C(C)=C4CCC(=O)O)C(CCC(=O)O)=C3C [NMM, N-methyl mesoporphyrin IX]	Neither NMM, PP, nor BRACO-19 had any significant effect	no	4.8	reduced TERRA levels		preferential inhibition of TRF2-TERRA	significant reduction in G4 telomere DNA	yes	0.0017 ± 0.0008

— PMC7876106 (Scientific Reports, 2021)
